Laboratory results published in US20090099136A1 (PHARMASSET, INC., priority 2007, published 2009).
“And” between values parts separate entries of the source, which are not always exact repeats. Equal entries are not always repeated.

Columns and labels:
NL43 wild type virus = type: cell-based, HIV; conditions: read-out: EC50 (P4) (WT)

Compound | Toxicity (Luciferase, 6d) (P4 CCR5-luc cells) | EC50 (NL43 wild type virus)
CCCCCOC(=O)C(C)NP(=O)(OCC1OCC(n2cc(C)c(=O)[nH]c2=O)O1)Oc1ccccc1 (mixture of isomers) [Example 17] | >100 | 360 nM
CCCCCCOC(=O)C(C)NP(=O)(OCC1OCC(n2cc(C)c(=O)[nH]c2=O)O1)Oc1ccccc1 (mixture of isomers) [Example 18] |  | 740 nM and 410 nM
Cc1cn(C2COC(COP(=O)(NC(C)C(=O)OCc3ccc(F)cc3)Oc3ccccc3)O2)c(=O)[nH]c1=O (mixture of isomers) [Example 19] | >100 | 
CCOC(=O)C(C)NP(=O)(OCC1OCC(n2cc(C)c(=O)[nH]c2=O)O1)Oc1ccc(Cl)cc1 (mixture of isomers) [Example 20] | >100 | 270 nM
Cc1cn(C2COC(COP(=O)(NC(C)C(=O)OCc3ccccc3)Oc3ccccc3Cl)O2)c(=O)[nH]c1=O (mixture of isomers) [Example 25] | >100 | 260 nM
CCCCOC(=O)C(C)NP(=O)(OCC1OCC(n2cc(C)c(=O)[nH]c2=O)O1)Oc1ccc(Br)cc1 (mixture of isomers) [Example 28] | >100 | 1340 nM
COC(=O)C(CC(C)C)NP(=O)(OCC1OCC(n2cc(C)c(=O)[nH]c2=O)O1)Oc1ccccc1 (mixture of isomers) [Example 52] | >100 | 960 nM
Cc1cn(C2COC(COP(=O)(NC(C)C(=O)OCc3ccccc3)Oc3ccc(F)cc3)O2)c(=O)[nH]c1=O (mixture of isomers) [Example 67] | >100 | 1110 nM
Cc1cn(C2COC(COP(=O)(NC(C)C(=O)OC3CCCCC3)Oc3ccccc3)O2)c(=O)[nH]c1=O (mixture of isomers) [Example 72] | >100 | 2120 nM
Cc1cn(C2COC(COP(=O)(NC(C)C(=O)OC3CCCC3)Oc3ccccc3)O2)c(=O)[nH]c1=O (mixture of isomers) [Example 73] | >100 | 1030 nM
Cc1cn(C2COC(COP(=O)(NC(C)C(=O)OC3CCC3)Oc3ccc(F)cc3)O2)c(=O)[nH]c1=O (mixture of isomers) [Example 86] | >100 | 500 nM
Cc1cn(C2COC(COP(=O)(NC(C)C(=O)OC3CCC3)Oc3ccccc3)O2)c(=O)[nH]c1=O (mixture of isomers) [Example 95] | >100 | 450 nM
Cc1cn(C2COC(COP(=O)(NC(C)C(=O)OCC3CC3)Oc3ccccc3)O2)c(=O)[nH]c1=O (mixture of isomers) [Example 96] | >100 | 330 nM
Cc1cn(C2COC(COP(=O)(NC(C)C(=O)OCC3CCC3)Oc3ccccc3)O2)c(=O)[nH]c1=O (mixture of isomers) [Example 109] | >100 | 710 nM
Cc1cn(C2COC(COP(=O)(NC(CC(C)C)C(=O)OCC3CC3)Oc3ccccc3)O2)c(=O)[nH]c1=O (mixture of isomers) [Example 116] | >100 | 570 nM
Cc1cn(C2COC(COP(=O)(NC(C)C(=O)OCc3ccccc3)Oc3ccccc3)O2)c(=O)[nH]c1=O (mixture of isomers) [Example 119] | >100 | 1700 nM
